This is an account of results in ChEMBL document CHEMBL1201862, “PubChem BioAssay data set” (2004).

Activity calls are given as the source filed them. A value given as a limit tells only on which side of the number the result lay.

One test concerns the target T1, Caspase-6 (Homo sapiens, UniProt P55212).
T1 sequence (P55212 whole entry): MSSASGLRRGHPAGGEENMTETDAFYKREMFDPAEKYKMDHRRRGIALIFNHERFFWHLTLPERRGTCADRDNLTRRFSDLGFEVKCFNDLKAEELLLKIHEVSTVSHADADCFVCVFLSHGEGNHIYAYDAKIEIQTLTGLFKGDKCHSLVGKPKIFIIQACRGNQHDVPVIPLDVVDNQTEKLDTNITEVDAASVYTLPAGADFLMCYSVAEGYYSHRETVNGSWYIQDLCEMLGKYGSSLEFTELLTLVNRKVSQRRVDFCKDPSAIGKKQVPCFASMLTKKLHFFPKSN
Briefly: human caspase-6 inhibitors, dose response, biochemical, VEID-R110 fluorescence, cherry-pick (AID 720632).

The target in another test is T2, Protein RecA (Mycobacterium tuberculosis, UniProt P9WHJ3).
T2 sequence (P9WHJ3 whole entry): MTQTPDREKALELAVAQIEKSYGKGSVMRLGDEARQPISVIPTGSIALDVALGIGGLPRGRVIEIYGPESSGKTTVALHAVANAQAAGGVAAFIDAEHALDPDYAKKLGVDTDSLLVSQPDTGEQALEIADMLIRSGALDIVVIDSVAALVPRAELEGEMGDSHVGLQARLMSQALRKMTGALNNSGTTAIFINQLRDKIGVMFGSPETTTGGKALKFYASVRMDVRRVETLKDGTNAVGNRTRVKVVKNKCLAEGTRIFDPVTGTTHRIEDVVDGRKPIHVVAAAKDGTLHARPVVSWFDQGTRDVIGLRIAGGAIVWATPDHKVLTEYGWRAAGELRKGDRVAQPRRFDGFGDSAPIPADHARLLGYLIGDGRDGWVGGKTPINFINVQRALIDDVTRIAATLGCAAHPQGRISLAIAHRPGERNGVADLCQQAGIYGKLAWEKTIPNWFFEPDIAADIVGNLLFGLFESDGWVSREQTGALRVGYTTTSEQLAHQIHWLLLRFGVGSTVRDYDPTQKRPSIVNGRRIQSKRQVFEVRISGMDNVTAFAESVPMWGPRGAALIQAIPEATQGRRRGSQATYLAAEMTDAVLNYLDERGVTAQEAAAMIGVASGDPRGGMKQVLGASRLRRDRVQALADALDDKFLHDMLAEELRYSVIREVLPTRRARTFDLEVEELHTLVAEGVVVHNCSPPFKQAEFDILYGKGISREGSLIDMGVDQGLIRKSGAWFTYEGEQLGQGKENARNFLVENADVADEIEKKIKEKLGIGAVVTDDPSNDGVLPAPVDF
Put plainly: Fluorescence Cell-Free Homogeneous Dose Retest to Identify Inhibitors of RecA-Intein Splicing Activity. [Related pubchem assays (depositor defined):AID2097, AID2223, AID489010, AID492950]. The format is functional.

Test [1] concerns the target T3, Sentrin-specific protease 8 (Homo sapiens, UniProt Q96LD8).
T3 sequence (Q96LD8 whole entry): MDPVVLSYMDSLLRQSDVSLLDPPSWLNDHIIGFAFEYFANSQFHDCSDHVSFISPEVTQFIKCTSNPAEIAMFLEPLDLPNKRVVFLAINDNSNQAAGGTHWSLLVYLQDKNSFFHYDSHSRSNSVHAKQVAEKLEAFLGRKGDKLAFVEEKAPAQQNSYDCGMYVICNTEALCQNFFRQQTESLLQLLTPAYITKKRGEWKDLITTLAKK
The format is functional.

In test [2] the target is Serine/threonine-protein kinase D3 (Homo sapiens, UniProt O94806). The format is functional.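 Further: determined within a kinase panel screen, with PRKCN as the panel member.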
Test [3] has as its target G protein-coupled receptor kinase 5 (Homo sapiens, UniProt P34947). Put plainly: Navigating the Kinome. Panel member name: GPRK5. The format is functional.
Test [4] concerns the target Vascular endothelial growth factor receptor 2 (Homo sapiens, UniProt P35968). The format is functional.
Test [5] deals with Insulin-like growth factor 1 receptor (Homo sapiens, UniProt P08069). Briefly: Navigating the Kinome. Panel member name: IGF1R. The format is functional.
In test [6] the target is Ribosomal protein S6 kinase alpha-3 (Homo sapiens, UniProt P51812). The format is functional.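 Further: measured within a kinome-wide profiling panel.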
In test [7] the target is Mitogen-activated protein kinase 14 (Homo sapiens, UniProt Q16539). The format is functional.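 Further: part of a kinome-wide panel, MAPK14 entry.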
In test [8] the target is Casein kinase I isoform alpha (Homo sapiens, UniProt P48729). The format is functional.
Casein kinase I isoform alpha, sequence (P48729 whole entry, canonical isoform): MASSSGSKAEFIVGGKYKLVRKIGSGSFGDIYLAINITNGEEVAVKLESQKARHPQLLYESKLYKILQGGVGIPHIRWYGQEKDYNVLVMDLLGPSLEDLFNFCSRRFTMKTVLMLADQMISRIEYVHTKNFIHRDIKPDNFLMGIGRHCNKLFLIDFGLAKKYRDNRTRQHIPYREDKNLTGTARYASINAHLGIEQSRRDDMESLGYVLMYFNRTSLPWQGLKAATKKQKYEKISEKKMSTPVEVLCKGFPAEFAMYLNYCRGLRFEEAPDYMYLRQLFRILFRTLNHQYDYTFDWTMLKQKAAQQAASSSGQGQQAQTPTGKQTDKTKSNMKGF
Test [9] concerns the target 5'-AMP-activated protein kinase catalytic subunit alpha-1 (Homo sapiens, UniProt Q13131). The format is functional.
Test [10] deals with Mitogen-activated protein kinase kinase kinase kinase 2 (Homo sapiens, UniProt Q12851). The format is functional.
For test [11], the target named is Proto-oncogene tyrosine-protein kinase receptor Ret (Homo sapiens, UniProt P07949). The format is functional.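 Further: measured within a kinome-wide profiling panel, RET as the panel member.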
The target in test [12] is Receptor-type tyrosine-protein kinase FLT3 (Homo sapiens, UniProt P36888). The format is functional.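 Further: FLT3 was tested as one member of a kinome-wide kinase panel.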
Test [13] deals with Dual specificity mitogen-activated protein kinase kinase 1 (Homo sapiens, UniProt Q02750). Put plainly: Navigating the Kinome. Panel member name: MAP2K1. The format is functional.
For test [14], the target named is cAMP-dependent protein kinase catalytic subunit alpha (Homo sapiens, UniProt P17612). The format is functional.
Test [15] concerns the target ALK tyrosine kinase receptor (Homo sapiens, UniProt Q9UM73). The format is functional.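 Further: ALK tested as one member of a kinase panel screen.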
For test [16], the target named is Leucine-rich repeat serine/threonine-protein kinase 2 (Homo sapiens, UniProt Q5S007). The format is functional.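 Further: value from a broad kinome-wide panel profiling study in which LRRK2 was one of the kinases tested.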
Leucine-rich repeat serine/threonine-protein kinase 2, sequence (Q5S007 whole entry): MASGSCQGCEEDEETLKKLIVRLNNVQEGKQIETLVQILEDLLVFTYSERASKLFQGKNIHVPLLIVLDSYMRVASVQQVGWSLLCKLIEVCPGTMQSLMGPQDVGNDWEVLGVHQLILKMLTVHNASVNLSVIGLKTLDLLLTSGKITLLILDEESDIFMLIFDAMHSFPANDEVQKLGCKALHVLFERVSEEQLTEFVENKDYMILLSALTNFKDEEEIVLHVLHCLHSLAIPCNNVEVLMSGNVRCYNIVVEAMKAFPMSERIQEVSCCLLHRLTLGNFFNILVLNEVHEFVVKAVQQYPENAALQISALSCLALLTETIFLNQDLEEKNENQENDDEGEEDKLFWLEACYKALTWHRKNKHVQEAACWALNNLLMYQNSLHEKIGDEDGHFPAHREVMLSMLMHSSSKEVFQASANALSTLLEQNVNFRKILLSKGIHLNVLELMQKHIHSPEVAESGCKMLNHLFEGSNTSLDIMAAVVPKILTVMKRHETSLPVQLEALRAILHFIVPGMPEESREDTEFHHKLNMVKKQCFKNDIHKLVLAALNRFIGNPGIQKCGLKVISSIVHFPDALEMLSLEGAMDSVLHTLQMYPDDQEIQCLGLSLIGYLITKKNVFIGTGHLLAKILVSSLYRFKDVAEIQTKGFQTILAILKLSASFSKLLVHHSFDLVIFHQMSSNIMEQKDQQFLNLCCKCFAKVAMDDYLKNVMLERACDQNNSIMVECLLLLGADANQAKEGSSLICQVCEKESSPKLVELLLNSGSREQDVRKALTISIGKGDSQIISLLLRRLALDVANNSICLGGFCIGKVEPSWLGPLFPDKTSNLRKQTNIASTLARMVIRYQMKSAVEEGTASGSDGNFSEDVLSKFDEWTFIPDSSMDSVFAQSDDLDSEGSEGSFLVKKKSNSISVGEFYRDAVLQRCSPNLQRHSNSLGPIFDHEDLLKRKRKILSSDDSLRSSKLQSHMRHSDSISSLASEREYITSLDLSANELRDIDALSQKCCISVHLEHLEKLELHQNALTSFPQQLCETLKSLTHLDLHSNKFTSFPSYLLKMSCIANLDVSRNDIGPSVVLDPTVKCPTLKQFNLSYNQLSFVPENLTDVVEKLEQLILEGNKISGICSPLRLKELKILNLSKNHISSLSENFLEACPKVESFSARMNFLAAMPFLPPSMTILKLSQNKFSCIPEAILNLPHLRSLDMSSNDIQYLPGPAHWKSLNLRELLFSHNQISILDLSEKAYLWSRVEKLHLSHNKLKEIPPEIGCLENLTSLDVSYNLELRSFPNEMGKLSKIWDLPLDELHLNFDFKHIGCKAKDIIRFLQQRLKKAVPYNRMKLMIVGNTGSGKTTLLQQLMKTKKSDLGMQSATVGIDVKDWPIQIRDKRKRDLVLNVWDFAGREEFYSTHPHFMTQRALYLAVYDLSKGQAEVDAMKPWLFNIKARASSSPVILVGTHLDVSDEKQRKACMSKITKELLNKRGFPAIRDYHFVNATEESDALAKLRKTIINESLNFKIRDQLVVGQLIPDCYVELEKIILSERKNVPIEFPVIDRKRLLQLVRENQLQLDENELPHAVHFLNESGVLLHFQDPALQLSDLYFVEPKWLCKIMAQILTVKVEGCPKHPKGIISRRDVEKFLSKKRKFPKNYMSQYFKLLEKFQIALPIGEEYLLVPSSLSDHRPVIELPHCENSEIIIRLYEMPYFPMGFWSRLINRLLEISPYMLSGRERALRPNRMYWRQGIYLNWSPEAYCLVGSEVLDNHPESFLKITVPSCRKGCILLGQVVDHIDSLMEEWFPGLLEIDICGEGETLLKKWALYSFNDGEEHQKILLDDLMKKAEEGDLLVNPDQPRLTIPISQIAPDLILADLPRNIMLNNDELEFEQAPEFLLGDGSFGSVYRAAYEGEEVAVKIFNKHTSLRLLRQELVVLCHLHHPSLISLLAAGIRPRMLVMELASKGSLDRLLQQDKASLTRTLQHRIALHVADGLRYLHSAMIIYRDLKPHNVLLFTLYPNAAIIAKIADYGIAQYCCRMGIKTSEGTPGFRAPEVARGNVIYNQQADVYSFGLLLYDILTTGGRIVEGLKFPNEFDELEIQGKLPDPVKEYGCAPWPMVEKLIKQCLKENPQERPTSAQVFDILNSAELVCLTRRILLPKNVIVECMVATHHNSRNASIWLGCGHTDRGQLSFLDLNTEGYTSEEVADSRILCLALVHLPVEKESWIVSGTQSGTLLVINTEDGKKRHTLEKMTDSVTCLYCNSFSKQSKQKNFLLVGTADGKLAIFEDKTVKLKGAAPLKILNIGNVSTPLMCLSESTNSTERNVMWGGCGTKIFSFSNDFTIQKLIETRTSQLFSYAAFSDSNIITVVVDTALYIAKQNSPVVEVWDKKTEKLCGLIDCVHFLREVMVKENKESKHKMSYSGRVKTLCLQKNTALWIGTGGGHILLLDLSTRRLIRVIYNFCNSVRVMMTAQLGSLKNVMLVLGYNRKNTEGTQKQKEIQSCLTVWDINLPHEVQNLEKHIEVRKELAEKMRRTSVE
Test [17] has as its target T4, Alkaline phosphatase, tissue-nonspecific isozyme (Homo sapiens, UniProt P05186).
T4 sequence (P05186 whole entry): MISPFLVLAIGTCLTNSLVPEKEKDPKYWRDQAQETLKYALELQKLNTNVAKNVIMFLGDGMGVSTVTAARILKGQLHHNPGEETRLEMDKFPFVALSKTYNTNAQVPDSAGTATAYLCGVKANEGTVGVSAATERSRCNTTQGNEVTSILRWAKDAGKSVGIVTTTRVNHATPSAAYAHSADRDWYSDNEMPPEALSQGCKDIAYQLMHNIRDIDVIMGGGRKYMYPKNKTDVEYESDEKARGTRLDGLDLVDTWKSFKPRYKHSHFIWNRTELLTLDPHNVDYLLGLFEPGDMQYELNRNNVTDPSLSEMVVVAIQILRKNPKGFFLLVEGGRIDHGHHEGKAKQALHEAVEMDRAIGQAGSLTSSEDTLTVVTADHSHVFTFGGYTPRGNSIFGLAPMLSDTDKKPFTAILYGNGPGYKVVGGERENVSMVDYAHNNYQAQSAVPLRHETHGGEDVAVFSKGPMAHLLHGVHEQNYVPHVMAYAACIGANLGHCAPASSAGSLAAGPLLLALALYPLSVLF
Briefly: TNAP enzyme activators, dose response, selectivity assay for mouse IAP activator project, biochemical, TNAP isozyme, mouse IAP uHTS hits (AID 488880). The format is functional.

5'-AMP-activated protein kinase catalytic subunit alpha-1, sequence (Q13131 whole entry): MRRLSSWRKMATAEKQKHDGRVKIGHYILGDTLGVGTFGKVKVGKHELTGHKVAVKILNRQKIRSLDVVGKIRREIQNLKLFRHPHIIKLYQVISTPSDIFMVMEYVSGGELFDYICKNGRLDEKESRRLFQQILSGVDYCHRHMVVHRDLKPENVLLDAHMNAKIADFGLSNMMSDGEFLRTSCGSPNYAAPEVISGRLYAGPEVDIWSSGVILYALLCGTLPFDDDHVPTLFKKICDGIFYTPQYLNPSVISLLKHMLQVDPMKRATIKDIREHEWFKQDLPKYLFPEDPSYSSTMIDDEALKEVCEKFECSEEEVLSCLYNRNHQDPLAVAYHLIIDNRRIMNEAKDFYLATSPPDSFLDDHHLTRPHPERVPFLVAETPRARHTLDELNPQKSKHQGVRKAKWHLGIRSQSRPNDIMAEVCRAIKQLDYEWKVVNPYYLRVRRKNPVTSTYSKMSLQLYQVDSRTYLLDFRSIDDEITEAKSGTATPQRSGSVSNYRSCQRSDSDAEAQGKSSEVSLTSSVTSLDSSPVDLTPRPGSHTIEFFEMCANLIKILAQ
ALK tyrosine kinase receptor, sequence (Q9UM73 whole entry): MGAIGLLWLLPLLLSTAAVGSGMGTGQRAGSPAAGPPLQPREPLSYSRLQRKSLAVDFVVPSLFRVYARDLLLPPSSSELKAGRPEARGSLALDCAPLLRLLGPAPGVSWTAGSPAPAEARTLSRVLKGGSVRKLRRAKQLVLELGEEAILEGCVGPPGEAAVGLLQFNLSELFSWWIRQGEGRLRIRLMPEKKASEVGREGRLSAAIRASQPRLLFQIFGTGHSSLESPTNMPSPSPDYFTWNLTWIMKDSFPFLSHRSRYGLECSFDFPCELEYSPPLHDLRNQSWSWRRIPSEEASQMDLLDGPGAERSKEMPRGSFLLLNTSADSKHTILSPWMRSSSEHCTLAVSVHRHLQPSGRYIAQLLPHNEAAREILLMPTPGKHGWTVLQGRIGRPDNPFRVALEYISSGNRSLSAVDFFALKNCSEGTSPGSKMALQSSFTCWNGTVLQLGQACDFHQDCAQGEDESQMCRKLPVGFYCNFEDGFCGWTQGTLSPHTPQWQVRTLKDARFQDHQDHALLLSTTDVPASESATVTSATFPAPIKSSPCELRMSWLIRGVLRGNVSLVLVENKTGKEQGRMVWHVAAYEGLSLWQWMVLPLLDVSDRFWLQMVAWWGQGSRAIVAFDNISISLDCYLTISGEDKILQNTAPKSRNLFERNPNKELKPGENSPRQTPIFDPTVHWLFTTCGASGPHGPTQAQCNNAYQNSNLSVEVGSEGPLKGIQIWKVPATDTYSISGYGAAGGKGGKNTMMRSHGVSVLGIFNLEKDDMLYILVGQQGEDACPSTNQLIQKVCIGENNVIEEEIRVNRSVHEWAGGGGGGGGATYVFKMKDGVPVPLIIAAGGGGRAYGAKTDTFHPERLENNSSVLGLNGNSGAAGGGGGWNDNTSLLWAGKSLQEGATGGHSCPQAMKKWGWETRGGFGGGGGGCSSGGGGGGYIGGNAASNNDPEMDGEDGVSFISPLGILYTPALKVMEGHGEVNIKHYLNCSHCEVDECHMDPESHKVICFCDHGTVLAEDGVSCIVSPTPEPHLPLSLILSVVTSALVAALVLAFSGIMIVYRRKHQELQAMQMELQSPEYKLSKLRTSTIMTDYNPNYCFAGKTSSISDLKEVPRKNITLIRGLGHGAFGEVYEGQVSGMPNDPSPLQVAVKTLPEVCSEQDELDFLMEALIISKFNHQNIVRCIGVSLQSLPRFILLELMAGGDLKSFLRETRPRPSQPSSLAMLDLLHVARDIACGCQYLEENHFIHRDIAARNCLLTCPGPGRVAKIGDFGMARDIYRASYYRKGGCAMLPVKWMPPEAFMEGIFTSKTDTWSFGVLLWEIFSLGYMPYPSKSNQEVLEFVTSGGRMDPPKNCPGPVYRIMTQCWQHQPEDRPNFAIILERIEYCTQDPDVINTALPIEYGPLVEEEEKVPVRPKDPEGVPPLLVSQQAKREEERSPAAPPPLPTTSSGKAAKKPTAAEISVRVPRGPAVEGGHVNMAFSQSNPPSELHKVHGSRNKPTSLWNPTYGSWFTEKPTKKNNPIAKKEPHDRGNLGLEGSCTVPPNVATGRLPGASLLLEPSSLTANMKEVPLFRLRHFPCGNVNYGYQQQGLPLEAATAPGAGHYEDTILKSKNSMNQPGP

On to `CC1(C)C=C2C(=NN(c3ccccc3)C(N)=C2C#N)CO1`, for which, at Caspase-6, the AC50 was 1.07 µM (active). Moreover, the EC50 at Protein RecA is 0.297 µM (active). Besides, the IC50 in [1] is 0.0693 µM (active).

For `Cc1ccc(-c2cc3nc(Br)cnc3[nH]2)cc1`, the Ki in test [2] was > 3.98 µM (inactive); in test [3], > 3.98 µM (inactive); in test [4] it was 1.26 µM (active); in test [5] it was > 2.51 µM (inactive); in test [6], > 3.98 µM (inactive); in test [7], > 3.98 µM (inactive). Besides, the Ki in test [8] was > 3.98 µM (inactive); in test [9], 3.16 µM (active); in [10], > 2.51 µM (inactive); in test [11], 2.51 µM (active); in test [12] it was > 3.16 µM (inactive); in test [13] it was > 3.16 µM (inactive). In addition, the Ki in test [14] was > 1.26 µM (inactive); in [15], > 6.31 µM (inactive); in [16] it was > 2.51 µM (inactive).

As for `O=C1C=C(O)c2c(O)cc(O)c(O)c2C1=O`, in test [17], the EC50 was > 100 µM (inactive).

The term AC50 denotes the concentration giving half of the maximal activity seen. Broadly, the EC50 is the concentration that produces a half-maximal response. One may read the IC50 as the point on the concentration scale where inhibition reaches its midpoint. What is called Ki is the dissociation constant of the complex between target and ligand, obtained from inhibition or displacement.
